From patent US11987648B2, “Cyclohexapeptides as selective somatostatin SST5 receptor agonists” (Heptares Therapeutics Limited, priority 2018, dated 2024) come the findings set out here.

SMILES strings stand for the structures. *1 amine or outer side, *2 acyl side, *3 side chain or, on linkers, in order; H or OH if unused. Where a SMILES comes first, the peptide text is derived from it. Side-chain parts run from the residue outwards. [ ]: non-standard residue; d: D form. The star is where a group is joined. Ala(piperidin-4-yl) = O=C([C@H](CC1CCN([*:3])CC1)N[*:1])[*:2]; dTrp(4-OMe) = COc1cccc2[nH]cc(C[C@@H](N)C(=O)O)c12; dTrp(4-Me) = Cc1cccc2[nH]cc(C[C@@H](N)C(=O)O)c12; Ala(piperazin-1-yl) = N[C@@H](CN1CCNCC1)C(=O)O; Phe(3-Cl) = N[C@@H](Cc1cccc(Cl)c1)C(=O)O; Phe(4-Cl) = N[C@@H](Cc1ccc(Cl)cc1)C(=O)O; Morpholine(3S-CO) = O=C(O)[C@@H]1COCCN1; Ethylenediamine = C(CN[*:2])N[*:1]; d(hPhe) = N[C@H](CCc1ccccc1)C(=O)O; Hyp = O=C(O)[C@@H]1C[C@@H](O)CN1; NMeF = CN[C@@H](Cc1ccccc1)C(=O)O; hPhe = N[C@@H](CCc1ccccc1)C(=O)O; 3Pal = N[C@@H](Cc1cccnc1)C(=O)O; Cyclohexylmethyl = C1CCC(C*)CC1; Tic = O=C(O)[C@@H]1Cc2ccccc2CN1; Benzyl(4-Cl) = Clc1ccc(C*)cc1; X6 = Clc1cccc(Cl)c1C*; CO = O=C([*:1])[*:2]; Bn = c1ccc(C*)cc1; X1 = C1CCC(C*)C1; X4 = C1CC(C*)C1

In general, Emax refers to the size of the effect at its maximum, as opposed to the concentration needed.

One assay has as its target SST5 (Homo sapiens, UniProt P35346). Description: Hit Hunter cAMP XS+ assay, SST5 activation via Gi (reduction of forskolin-stimulated cAMP). In kind it is cell-based. To be noted: for Emax: read-out: SST5 (EMax); for EC50: reduction of forskolin-stimulated cAMP, 4-parameter logistic fit, read-out: SST5 pEC50 (converted); for SST5/2 Selectivity: selectivity for SST5 over SST2. The gist of the method:
(§1)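 Cells (10,000/well) incubated 30 min at 37 °C with compound under EC80 forskolin ([…] for SST2, 15 μM for SST5). cAMP reduction was detected by enzyme-fragment complementation chemiluminescence after 60 min and 180 min room-temperature reagent steps. Potency and efficacy were both measured.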

Another assay addresses SST2 (Homo sapiens, UniProt P30874). Description: Hit Hunter cAMP XS+ assay, SST2 activation via Gi (reduction of forskolin-stimulated cAMP). In kind it is cell-based. To be noted: for Emax: read-out: SST2 (EMax); for EC50: reduction of forskolin-stimulated cAMP, 4-parameter logistic fit, read-out: SST2 pEC50 (converted). In outline: as §1

Chain of SST5 (P35346 whole entry, the tested form may be a part): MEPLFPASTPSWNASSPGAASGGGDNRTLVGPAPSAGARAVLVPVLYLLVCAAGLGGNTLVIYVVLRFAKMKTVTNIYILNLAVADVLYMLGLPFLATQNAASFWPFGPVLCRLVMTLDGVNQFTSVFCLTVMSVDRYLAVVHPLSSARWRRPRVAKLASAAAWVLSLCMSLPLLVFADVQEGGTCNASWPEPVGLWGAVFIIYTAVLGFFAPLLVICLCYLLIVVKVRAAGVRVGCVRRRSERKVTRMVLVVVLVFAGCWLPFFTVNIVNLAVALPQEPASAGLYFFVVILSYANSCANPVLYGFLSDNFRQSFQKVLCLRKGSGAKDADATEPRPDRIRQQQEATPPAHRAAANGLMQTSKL
Chain of SST2 (P30874 whole entry): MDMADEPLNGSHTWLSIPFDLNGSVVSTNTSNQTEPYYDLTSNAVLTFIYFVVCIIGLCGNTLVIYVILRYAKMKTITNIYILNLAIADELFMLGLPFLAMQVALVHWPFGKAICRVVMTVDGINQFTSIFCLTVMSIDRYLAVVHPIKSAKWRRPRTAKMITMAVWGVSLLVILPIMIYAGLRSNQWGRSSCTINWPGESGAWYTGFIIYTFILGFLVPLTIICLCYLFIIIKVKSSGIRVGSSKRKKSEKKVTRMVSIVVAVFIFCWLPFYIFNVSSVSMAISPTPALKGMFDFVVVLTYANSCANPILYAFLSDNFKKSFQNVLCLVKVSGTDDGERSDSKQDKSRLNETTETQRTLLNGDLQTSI

For `COc1cccc2[nH]cc(C[C@H]3NC(=O)[C@H](CCc4ccccc4)NC(=O)[C@@H]4COCCN4C(=O)[C@@H]4Cc5ccccc5CN4C(=O)[C@H](Cc4ccc(OCc5ccccc5)cc4)NC(=O)[C@H](CC4CCNCC4)NC3=O)c12` [Example 46] (cyclo([Tic][Morpholine(3S-CO)][hPhe][dTrp(4-OMe)][Ala(piperidin-4-yl)]Y(Bn))), at SST5, the maximal response (Emax) is 102%, the EC50 is 0.0794 nM and the “SST5/2 Selectivity” value worked out at 527.6. Moreover, on SST2, the Emax was 98.6% and the EC50 is 39.8 nM.
On the same counts, the results for `NCCNC(=O)O[C@@H]1C[C@H]2C(=O)N[C@@H](CCc3ccccc3)C(=O)N[C@H](Cc3c[nH]c4ccccc34)C(=O)N[C@@H](CC3CCNCC3)C(=O)N[C@@H](Cc3ccc(OCc4c(Cl)cccc4Cl)cc3)C(=O)N[C@@H](Cc3cccnc3)C(=O)N2C1` [Example 47] (cyclo([3Pal][Hyp]([CO-Ethylenediamine])[hPhe][dW][Ala(piperidin-4-yl)]Y(X6))) are 108%, 0.794 nM, 226.4, 100% and 200 nM.
The corresponding values for `NCCNC(=O)O[C@@H]1C[C@H]2C(=O)N[C@@H](CCc3ccccc3)C(=O)N[C@H](Cc3c[nH]c4ccccc34)C(=O)N[C@@H](CN3CCNCC3)C(=O)N[C@@H](Cc3ccc(OCc4ccccc4)cc3)C(=O)N[C@@H](Cc3cccc(Cl)c3)C(=O)N2C1` [Example 48] (cyclo([Hyp]([CO-Ethylenediamine])[hPhe][dW][Ala(piperazin-1-yl)]Y(Bn)[Phe(3-Cl)])) are 103%, 0.02 nM, 106.6, 100% and 2 nM.
In the case of `NCCNC(=O)O[C@@H]1C[C@H]2C(=O)N[C@@H](CCc3ccccc3)C(=O)N[C@H](Cc3c[nH]c4ccccc34)C(=O)N[C@@H](CC3CCNCC3)C(=O)N[C@@H](Cc3ccc(OCC4CCCC4)cc3)C(=O)N[C@@H](Cc3cccnc3)C(=O)N2C1` [Example 49] (cyclo([3Pal][Hyp]([CO-Ethylenediamine])[hPhe][dW][Ala(piperidin-4-yl)]Y(X1))), on SST5, the maximum response (Emax) amounted to 103%, the EC50 was 3.16 nM and the “SST5/2 Selectivity” value is recorded as 143.3. In addition, on SST2, the maximum response (Emax) was 98.9% and the EC50 was 501 nM.
The corresponding values for `NCCNC(=O)O[C@@H]1C[C@H]2C(=O)N[C@@H](CCc3ccccc3)C(=O)N[C@H](Cc3c[nH]c4ccccc34)C(=O)N[C@@H](CC3CCNCC3)C(=O)N[C@@H](Cc3ccc(OCC4CCC4)cc3)C(=O)N[C@@H](Cc3cccnc3)C(=O)N2C1` [Example 50] (cyclo([3Pal][Hyp]([CO-Ethylenediamine])[hPhe][dW][Ala(piperidin-4-yl)]Y(X4))) are 103%, 15.8 nM, 41.1, 95.4% and 631 nM.
On the same counts, the results for `NCCNC(=O)O[C@@H]1C[C@H]2C(=O)N[C@@H](CCc3ccccc3)C(=O)N[C@H](Cc3c[nH]c4ccccc34)C(=O)N[C@@H](CN3CCNCC3)C(=O)N[C@@H](Cc3ccc(OCc4ccccc4)cc3)C(=O)N[C@@H](Cc3ccc(Cl)cc3)C(=O)N2C1` [Example 51] (cyclo([Hyp]([CO-Ethylenediamine])[hPhe][dW][Ala(piperazin-1-yl)]Y(Bn)[Phe(4-Cl)])) are 106%, 0.0794 nM, 64.3, 100% and 5.01 nM.
On the same counts, the results for `NCCNC(=O)O[C@@H]1C[C@H]2C(=O)N[C@@H](CCc3ccccc3)C(=O)N[C@H](Cc3c[nH]c4ccccc34)C(=O)N[C@@H](CN3CCNCC3)C(=O)N[C@@H](Cc3ccc(OCC4CCCCC4)cc3)C(=O)N[C@@H](Cc3cccnc3)C(=O)N2C1` [Example 52] (cyclo([3Pal][Hyp]([CO-Ethylenediamine])[hPhe][dW][Ala(piperazin-1-yl)]Y(Cyclohexylmethyl))) are 107%, 0.158 nM, 2108.2, 96.8% and 398 nM.
With `NCCNC(=O)O[C@@H]1C[C@H]2C(=O)N[C@H](CCc3ccccc3)C(=O)N[C@H](Cc3c[nH]c4ccccc34)C(=O)N[C@@H](CC3CCNCC3)C(=O)N[C@@H](Cc3ccc(OCC4CCCCC4)cc3)C(=O)N[C@@H](Cc3cccnc3)C(=O)N2C1` [Example 53] (cyclo([3Pal][Hyp]([CO-Ethylenediamine])[d(hPhe)][dW][Ala(piperidin-4-yl)]Y(Cyclohexylmethyl))), on SST5, the maximal effect (Emax) worked out at 103%, the EC50 was 31.6 nM and the “SST5/2 Selectivity” value stood at 293.1. In addition, on SST2, the maximal effect (Emax) came to 50.9% and the EC50 is above 10000 nM.
The corresponding values for `NCCNC(=O)O[C@@H]1C[C@H]2C(=O)N[C@@H](CCc3ccccc3)C(=O)N[C@H](Cc3c[nH]c4ccccc34)C(=O)N[C@@H](CC3CCNCC3)C(=O)N[C@@H](Cc3ccc(OCC4CCCCC4)cc3)C(=O)N[C@@H](Cc3cccnc3)C(=O)N2C1` [Example 54] (cyclo([3Pal][Hyp]([CO-Ethylenediamine])[hPhe][dW][Ala(piperidin-4-yl)]Y(Cyclohexylmethyl))) are 104%, 0.501 nM, 1083.5, 96.2% and 631 nM.
On to `COc1ccc(C[C@@H]2NC(=O)[C@H](Cc3ccc(OCc4ccccc4)cc3)NC(=O)[C@H](CC3CCNCC3)NC(=O)[C@@H](Cc3c[nH]c4ccccc34)NC(=O)[C@@H](CCc3ccccc3)NC(=O)[C@@H]3C[C@@H](OC(=O)NCCN)CN3C2=O)cc1` [Example 55] (cyclo([Hyp]([CO-Ethylenediamine])[d(hPhe)][dW][Ala(piperidin-4-yl)]Y(Bn)Y(Me))), for which, at SST5, the maximum response (Emax) was 106%, the EC50 was 10 nM and the “SST5/2 Selectivity” value amounted to 1120.0. For the same compound, at SST2, the Emax came to 85.9% and the EC50 is above 10000 nM.
On the same counts, the results for `CN1C(=O)[C@H](Cc2ccc(OCc3ccccc3)cc2)NC(=O)[C@H](CN2CCNCC2)NC(=O)[C@@H](Cc2c[nH]c3ccccc23)NC(=O)[C@H](CCc2ccccc2)NC(=O)[C@@H]2C[C@@H](OC(=O)NCCN)CN2C(=O)[C@@H]1Cc1ccccc1` [Example 57] (cyclo([Hyp]([CO-Ethylenediamine])[hPhe][dW][Ala(piperazin-1-yl)]Y(Bn)[NMeF])) are 102%, 0.501 nM, 404.6, 96.5% and 200 nM.
On the same counts, the results for `NCCNC(=O)O[C@@H]1C[C@H]2C(=O)N[C@H](CCc3ccccc3)C(=O)N[C@H](Cc3c[nH]c4ccccc34)C(=O)N[C@@H](CN3CCNCC3)C(=O)N[C@@H](Cc3ccc(OCc4ccc(Cl)cc4)cc3)C(=O)N[C@@H](Cc3cccnc3)C(=O)N2C1` [Example 58] (cyclo([3Pal][Hyp]([CO-Ethylenediamine])[d(hPhe)][dW][Ala(piperazin-1-yl)]Y(Benzyl(4-Cl)))) are 103%, 15.8 nM, 695.7, 42.9% and above 10000 nM.
On the same counts, the results for `NCCNC(=O)O[C@@H]1C[C@H]2C(=O)N[C@@H](CCc3ccccc3)C(=O)N[C@H](Cc3c[nH]c4ccccc34)C(=O)N[C@@H](CN3CCNCC3)C(=O)N[C@@H](Cc3ccc(OCc4ccc(Cl)cc4)cc3)C(=O)N[C@@H](Cc3cccnc3)C(=O)N2C1` [Example 59] (cyclo([3Pal][Hyp]([CO-Ethylenediamine])[hPhe][dW][Ala(piperazin-1-yl)]Y(Benzyl(4-Cl)))) are 106%, 0.631 nM, 738.9, 95.7% and 501 nM.
For `Cc1cccc2[nH]cc(C[C@H]3NC(=O)[C@H](CCc4ccccc4)NC(=O)[C@@H]4C[C@@H](OC(=O)NCCN)CN4C(=O)[C@H](Cc4cccnc4)NC(=O)[C@H](Cc4ccc(OCc5ccccc5)cc4)NC(=O)[C@H](CC4CCNCC4)NC3=O)c12` [Example 60] (cyclo([3Pal][Hyp]([CO-Ethylenediamine])[hPhe][dTrp(4-Me)][Ala(piperidin-4-yl)]Y(Bn))), at SST5, the Emax was found to be 104%, the EC50 is 1 nM and the “SST5/2 Selectivity” value was found to be 129.4. Moreover, on SST2, the Emax was found to be 99.8% and the EC50 was 126 nM.
As to `O=C1N[C@@H](Cc2ccc(OCc3ccccc3)cc2)C(=O)N2Cc3ccccc3C[C@H]2C(=O)N2CCOC[C@H]2C(=O)N[C@H](CCc2ccccc2)C(=O)N[C@H](Cc2c[nH]c3ccccc23)C(=O)N[C@H]1CN1CCNCC1` [Example 61] (cyclo([Tic][Morpholine(3S-CO)][d(hPhe)][dW][Ala(piperazin-1-yl)]Y(Bn))), on SST5, the Emax was found to be 103%, the EC50 is 31.6 nM and the “SST5/2 Selectivity” value was 291.4. Also, at SST2, the Emax came to 23.4% and the EC50 was above 10000 nM.
On the same counts, the results for `O=C1N[C@@H](Cc2ccc(OCc3ccccc3)cc2)C(=O)N2Cc3ccccc3C[C@H]2C(=O)N2CCOC[C@H]2C(=O)N[C@H](CCc2ccccc2)C(=O)N[C@H](Cc2c[nH]c3ccccc23)C(=O)N[C@H]1CC1CCNCC1` [Example 62] (cyclo([Tic][Morpholine(3S-CO)][d(hPhe)][dW][Ala(piperidin-4-yl)]Y(Bn))) are 102%, 3.16 nM, 224.3, 99.4% and 631 nM.
